Test results published in ChEMBL document CHEMBL4007425, “Drug Repurposing of Histone Deacetylase Inhibitors That Alleviate Neutrophilic Inflammation in Acute Lung Injury and Idiopathic Pulmonary Fibrosis via Inhibiting Leukotriene A4 Hydrolase and Blocking LTB4 Biosynthesis” (J Med Chem, 2017).
Active and inactive are the calls of the source. No cut-off for these calls is given here.

Columns and labels:
[1] = molecular target: T1, Leukotriene A-4 hydrolase (LTA4H) aminopeptidase activity (Homo sapiens, UniProt P09960); test: Inhibition of recombinant human LTA4H aminopeptidase activity expressed in Escherichia coli BL21 (DE3) pLysS assessed as formation of p-NA from Ala-p-NA at 10 uM preincubated for 10 mins followed by substrate addition measured after 10 mins
T1 sequence (P09960 whole entry): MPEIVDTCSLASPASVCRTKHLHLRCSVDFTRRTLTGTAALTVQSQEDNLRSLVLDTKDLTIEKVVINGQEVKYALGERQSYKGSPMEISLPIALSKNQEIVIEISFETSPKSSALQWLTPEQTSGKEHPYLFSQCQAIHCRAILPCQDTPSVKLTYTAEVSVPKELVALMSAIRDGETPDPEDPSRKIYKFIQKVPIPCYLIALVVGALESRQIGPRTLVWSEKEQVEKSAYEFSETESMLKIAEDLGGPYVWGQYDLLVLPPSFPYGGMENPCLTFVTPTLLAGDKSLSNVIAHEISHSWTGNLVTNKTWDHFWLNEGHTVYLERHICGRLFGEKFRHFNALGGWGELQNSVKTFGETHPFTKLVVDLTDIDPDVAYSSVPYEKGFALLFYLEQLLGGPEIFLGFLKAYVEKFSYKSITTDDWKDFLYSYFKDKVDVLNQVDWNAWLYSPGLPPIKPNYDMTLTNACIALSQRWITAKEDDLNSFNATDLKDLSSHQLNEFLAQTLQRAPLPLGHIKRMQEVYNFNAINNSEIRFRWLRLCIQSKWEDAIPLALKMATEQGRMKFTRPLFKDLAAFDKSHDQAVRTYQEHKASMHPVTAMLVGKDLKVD

[2] = molecular target: T2, Leukotriene A-4 hydrolase (Homo sapiens, UniProt P09960); test: Inhibition of recombinant human LTA4H aminopeptidase activity expressed in Escherichia coli BL21 (DE3) pLysS assessed as formation of p-NA from Ala-p-NA preincubated for 10 mins followed by substrate addition measured after 10 mins; type: ADME
T2 sequence (P09960 whole entry): T1 sequence (P09960 whole entry)

[3] = molecular target: T3, Leukotriene A-4 hydrolase (Homo sapiens) (UniProt P09960); details: at 10 µM
T3 sequence (whole entry): T1 sequence (P09960 whole entry)
Description: Inhibition of recombinant human LTA4H Epoxide Hydrolase expressed in Escherichia coli BL21 (DE3) pLysS at 10 uM preincubated for 10 mins followed by addition of LTA4 as substrate measured after 15 mins by reverse-phase HPLC analysis

[4] = molecular target: T3, Leukotriene A-4 hydrolase (Homo sapiens)
Description: Binding affinity to recombinant human LTA4H hydrolase assessed as change in melting temperature at 50 uM by SYPRO orange dye-based thermofluor assay

[5] = molecular target: T2, Leukotriene A-4 hydrolase; test: Inhibition of recombinant human LTA4H Epoxide Hydrolase expressed in Escherichia coli BL21 (DE3) pLysS preincubated for 10 mins followed by addition of LTA4 as substrate measured after 15 mins by reverse-phase HPLC analysis
Mus musculus [6] = test: Anti-inflammatory activity in LPS-induced C57BL/6 mouse model of acute lung injury assessed as reduction in pathological changes at 25 mg/kg, ip and co-treated with ((2S,3R)-3-amino-2-hydroxy-4-phenylbutanamido)-4-methylpentanoic acid pretreated for 1 hr followed LPS challenge measured after 24 hrs by hematoxylin and eosin staining based microscopy; type: functional, organism-based
Mus musculus [7] = organism: Mus musculus; details: C57BL/6, at 25 mg/kg
Description: Inhibition of LTB4 biosynthesis in LPS-induced C57BL/6 mouse model of acute lung injury BLAF at 25 mg/kg, ip by ELISA

[8] = molecular target: T3, Leukotriene A-4 hydrolase (Homo sapiens); details: 10 uM
Mus musculus [9] = test: Anti-inflammatory activity in BLM-induced C57BL/6 mouse model of acute lung neutrophilic inflammation assessed as reduction in number of neutrophils in BALF at 30 mg/kg, ip qd for 7 days post BLM challenge measured on day 7; type: functional, organism-based

Row | SMILES | inhibition at 10 min, 10 µM [1] [%] | IC50 [2] [µM] | inhibition [3] [%] | ΔTm [4] [°C] | IC50 [5] [µM] | Activity (Mus musculus [6]) | inhibition (Mus musculus [7]) | ΔTm [8] [°C] | Activity (Mus musculus [9]) | inhibition at 10 min, 10 µM ([1]; probe Ala-p-NA) [%]
1 | O=C(CCCCCN1C(=O)c2cccc3cccc(c23)C1=O)NO | > 50 | 4.4 | > 50 | -0.68 | > 10 | – | – | – | – | –
2 | CC(C)C[C@H](NC(=O)[C@@H](O)[C@H](N)Cc1ccccc1)C(=O)O | – | – | – | – | – | Active | Active | – | – | –
3 | CN(CCCOc1ccc(Cc2ccccc2)cc1)CCC(=O)O | – | – | – | – | – | – | – | 2.95 | – | –
4 | COC(=O)c1ccc2c(c1)NC(=O)/C2=C(\Nc1ccc(N(C)C(=O)CN2CCN(C)CC2)cc1)c1ccccc1 | – | – | – | – | – | – | – | – | Active | –
5 | CN(C)Cc1c(C(=O)NCCOc2ccc(C(=O)NO)cc2)oc2ccccc12 [ABEXINOSTAT] | – | > 10 | > 50 | 0.24 | > 10 | – | – | – | – | > 50
6 | O=C(/C=C/c1cccc(S(=O)(=O)Nc2ccccc2)c1)NO [BELINOSTAT] | – | > 10 | > 50 | 0.11 | > 10 | – | – | – | – | > 50
7 | C#Cc1cccc(Nc2ncnc3cc(OC)c(OCCCCCCC(=O)NO)cc23)c1 [CUDC-101] | > 50 | > 10 | > 50 | 0.3 | > 10 | – | – | – | – | –
8 | Nc1ccccc1NC(=O)c1ccc(CNC(=O)OCc2cccnc2)cc1 [ENTINOSTAT] | – | > 10 | > 50 | 0.39 | > 10 | – | – | – | – | > 50
9 | CCN(CC)Cc1ccc2cc(COC(=O)Nc3ccc(C(=O)NO)cc3)ccc2c1 [GIVINOSTAT] | – | > 10 | > 50 | 0.19 | > 10 | – | – | – | – | > 50
10 | Nc1ccccc1NC(=O)c1ccc(CNc2nccc(-c3cccnc3)n2)cc1 [MOCETINOSTAT] | – | > 10 | > 50 | -0.33 | > 10 | – | – | – | – | > 50
11 | Cc1[nH]c2ccccc2c1CCNCc1ccc(/C=C/C(=O)NO)cc1 [PANOBINOSTAT] | – | > 10 | > 50 | 0.12 | > 10 | – | – | – | – | > 50
12 | CCCCc1nc2cc(/C=C/C(=O)NO)ccc2n1CCN(CC)CC [PRACINOSTAT] | > 50 | > 10 | > 50 | 0.31 | > 10 | – | – | – | – | –
13 | Cn1cc(CNCC2CCN(c3ncc(C(=O)NO)cn3)CC2)c2ccccc21 [QUISINOSTAT] | – | > 10 | > 50 | 0.52 | > 10 | – | – | – | – | > 50
14 | CN(C)Cc1ccc(S(=O)(=O)n2ccc(/C=C/C(=O)NO)c2)cc1 [RESMINOSTAT] | – | > 10 | > 50 | 0.44 | > 10 | – | – | – | – | > 50
15 | O=C(CCCCCCNC(=O)c1cnc(N(c2ccccc2)c2ccccc2)nc1)NO [RICOLINOSTAT] | – | > 10 | > 50 | 0.55 | > 10 | – | – | – | – | > 50
16 | CC(/C=C/C(=O)NO)=C\[C@@H](C)C(=O)c1ccc(N(C)C)cc1 [TRICHOSTATIN] | – | > 10 | > 50 | 0.17 | > 10 | – | – | – | – | > 50
17 | O=C(CCCCCCC(=O)Nc1ccc([C@H]2O[C@@H](CSc3nc(-c4ccccc4)c(-c4ccccc4)o3)C[C@@H](c3ccc(CO)cc3)O2)cc1)NO [TUBACIN] | – | > 10 | > 50 | 0.34 | > 10 | – | – | – | – | > 50
18 | CCCC(CCC)C(=O)O [VALPROATE SODIUM] | – | > 10 | > 50 | 0.36 | > 10 | – | – | – | – | > 50
